Source: patent US5030760A, “Tetrahydrophthalimides, and their production and use” (Sumitomo Chemical Company, Ltd., priority 1981, dated 1991)

Tests used:
sicklepod [1] = assay: Test Example 5, spraying over the top, herbicidal activity; assay type: in vivo, Cassia obtusifolia; conditions: sprayed over the top, 20 days; note: ranges in brackets are in %
Experimental: (§1) The application of the tetrahydrophthalimides (I) as herbicides will be illustratively shown in the following Examples wherein the phytotoxicity to cultivated plants and the herbicidal activity on weeds were evaluated as follows: the aerial parts of the test plants were cut off and weighed (fresh weight); the percentage of the fresh weight of the treated plant to that of the untreated plant was calculated with the latter fresh weight taken as 100; and the crop damage and the herbicidal activity were evaluated by the standard given in the table below. The rating values of phytotoxicity, 0 and 1, and those of herbicidal effect, 5 and 4, are generally regarded as satisfactory to protect cultivated plants and control weeds, respectively. The rating values in the paddy field test alone were calculated from the dry weight of the test plants.
(§2) Plastic trays (35 cm×25 cm×15 cm) were filled with upland field soil, and the seeds of tall morningglory, velvetleaf, jimsonweed, sicklepod, hemp sesbania, prickly side, Johnsongrass, green foxtail and large crabgrass and the seeds of soybean were sown therein. A designed amount of the test compound formulated into a wettable powder according to Preparation Example 1 and dispersed in water was sprayed over the top by means of a small hand sprayer at a spray volume of 5 liters per are. After the spraying, the test plants were grown in greenhouse for 20 days, and phytotoxicity and herbicidal activity were examined.

tall morningglory = assay: Test Example 2, field foliar treatment, herbicidal activity; assay type: in vivo, Ipomoea purpurea; conditions: 3 weeks; note: ranges in brackets are in %
Experimental: as §1
Seeds of corn and broad-leaved weeds such as cocklebur, common purslane and tall morningglory were sown in the field as previously laid up in ridges, each ridge having an upper width of 1 m. At the time when the corn grew up to the 6-leaf stage and the broad-leaved weeds up to 2 to 5-leaf stages, a designed amount of the test compound formulated into an emulsifiable concentrate according to Preparation Example 2 and dispersed in water was sprayed to the foliage of the test plants with three replications over the top by means of a small hand sprayer at a spray volume of 5 liters per are. After cultivation for 3 weeks, herbicidal activity and phytotoxicity were examined.

Johnsongrass = assay: Test Example 5, spraying over the top, herbicidal activity; assay type: in vivo, Sorghum halepense; conditions: sprayed over the top, 20 days; note: ranges in brackets are in %
Experimental: as §1, §2

barnyardgrass = assay: Test Example 1, foliar treatment, herbicidal activity; assay type: in vivo, Echinochloa crus-galli; conditions: 3 weeks; note: ranges in brackets are in %
Method in brief: (§3)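 Crops and weeds sown in upland soil, greenhouse-grown 2 weeks, then sprayed on foliage with compound as emulsifiable concentrate in water plus spreading agent at 5 liters per are. Scored 3 weeks later from aerial fresh weight as percent of untreated plants, converted to a rating scale.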

rice plant = assay: Test Example 6, paddy pot perfusion, phytotoxicity to rice plant; assay type: in vivo; conditions: 3 weeks, dry weight; note: ranges in brackets are in %
Experimental: as §1
(§4) Wagner's pots (1/5000 are) were filled with paddy field soil containing the seeds of broad-leaved weeds (e.g. monochoria, false pimpernel, toothcup) and the seeds of barnyardgrass and hardstem bulrush, and water was poured therein until the depth of water became 4 cm. Rice seedlings of the 3.5-leaf stage and the tubers of arrowhead were transplanted therein and grown for 2 days in a greenhouse. A designed amount of the test compound formulated in an emulsifiable concentrate according to Preparation Example 2 was applied to the pots by perfusion. Thereafter, the test plants were grown for an additional 3 weeks in the greenhouse, and herbicidal activity and phytotoxicity were examined. In this treatment, the emulsifiable concentrate was dispersed in water for application at a perfusion volume of 10 liters per are.

broad-leaved weed = assay: Test Example 7, flooded paddy pot dripping, herbicidal activity; assay type: in vivo; conditions: 3 weeks; note: ranges in brackets are in %
Experimental: as §1
Wagner's pots (1/5000 are) were filled with paddy field soil and water was poured therein to make a flooded condition. Rice seedlings of the 3-leaf stage were transplanted and tubers of slender spikerush and arrowhead and the seeds of barnyardgrass, monochoria and broad-leaved weed were sowed therein and grown for 5 days. When germination occurs, a designed amount of the test compound formulated into an emulsifiable concentrate according to Preparation Example 2 was applied to the pots by dripping. The test plants were grown for a further 3 weeks, and herbicidal activity and phytotoxicity were examined. The herbicidal activity was evaluated in figures ranging from 0 to 5. The phytotoxicity to the crop plants was also indicated on the same standard as that of the herbicidal activity.

wild mustard = assay: Test Example 1, foliar treatment, herbicidal activity; assay type: in vivo, Brassica kaber; conditions: 3 weeks
Method in brief: as §3

green foxtail = assay: Test Example 4, pre-emergence treatment, herbicidal activity; assay type: in vivo, Setaria viridis; conditions: 20 days; note: ranges in brackets are in %
Method in brief: (§5)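 Seeds were sown in upland field soil and the compound was sprayed pre-emergence as an emulsifiable concentrate dispersed in water with spreading agent, at 5 liters per are. Plants were grown 20 days in a greenhouse. Ratings came from aerial fresh weight as a percentage of untreated plants.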

arrowhead = assay: Test Example 6, paddy pot perfusion, herbicidal activity; assay type: in vivo, Sagittaria pygmaea; conditions: 3 weeks, dry weight; note: ranges in brackets are in %
Experimental: as §1, §4

hardstem bulrush = assay: as above; assay type: in vivo, Scirpus juncoides; conditions: 3 weeks, dry weight; note: ranges in brackets are in %
Experimental: as §1, §4

soybean = assay: Test Example 5, spraying over the top, phytotoxicity to soybean; assay type: in vivo; conditions: sprayed over the top, 20 days; note: ranges in brackets are in %
Experimental: as §1, §2

morningglory = assay: Test Example 4, pre-emergence treatment, herbicidal activity; assay type: in vivo; conditions: 20 days; note: ranges in brackets are in %
Method in brief: as §5

sicklepod [2] = assay: Test Example 3, soil surface spraying, herbicidal activity; assay type: in vivo, Cassia obtusifolia; conditions: 20 days; note: ranges in brackets are in %
Experimental: as §1
Plastic trays (35 cm×25 cm×15 cm) were filled with upland field soil, and the seeds of tall morningglory, velvetleaf and sicklepod and the seeds of corn were sown therein. A designed amount of the test compounds formulated into a wettable powder according to Preparation Example 1 was dispersed in water and applied by spraying at a spray volume of 5 liters per are to the whole surface of the soil. After the spraying, the test plants were placed in a greenhouse and grown for 20 days, and herbicidal activity and phytotoxicity were examined.

corn = assay: Test Example 4, pre-emergence treatment, phytotoxicity to corn; assay type: in vivo; conditions: 20 days; note: ranges in brackets are in %
Method in brief: as §5

hemp sesbania = assay: Test Example 5, spraying over the top, herbicidal activity; assay type: in vivo, Sesbania exaltator; conditions: sprayed over the top, 20 days; note: ranges in brackets are in %
Experimental: as §1, §2

Structure (SMILES)	Herbicidal activity, Sicklepod (sicklepod [1]; 10 g/are)	Herbicidal activity, Sicklepod (sicklepod [1]; 20 g/are)	Herbicidal activity, Tall morningglory (tall morningglory; 0.63 g/are)	Herbicidal activity, Tall morningglory (tall morningglory; 1.25 g/are)	Herbicidal activity, Johnsongrass (Johnsongrass; 10 g/are)	Herbicidal activity, Johnsongrass (Johnsongrass; 20 g/are)	Herbicidal activity, Barnyardgrass (barnyardgrass; 1.25 g/are)	Herbicidal activity, Barnyardgrass (barnyardgrass; 5 g/are)	Phytotoxicity, Rice plant (rice plant; 1.25 g/are)	Phytotoxicity, Rice plant (rice plant; 2.5 g/are)	Herbicidal activity, Wild mustard (wild mustard; 1.25 g/are)	Herbicidal activity, Wild mustard (wild mustard; 5 g/are)	Herbicidal activity, Arrowhead (arrowhead; 1.25 g/are)	Herbicidal activity, Arrowhead (arrowhead; 2.5 g/are)	Herbicidal activity, Hardstem bulrush (hardstem bulrush; 1.25 g/are)	Herbicidal activity, Hardstem bulrush (hardstem bulrush; 2.5 g/are)	Phytotoxicity, Soybean (soybean; 10 g/are)	Phytotoxicity, Soybean (soybean; 20 g/are)	Herbicidal activity, Sicklepod (sicklepod [2]; 5 g/are)	Herbicidal activity, Sicklepod (sicklepod [2]; 10 g/are)	further results
O=C1C2=C(CCCC2)C(=O)N1c1ccc(Cl)cc1F [A, 2-fluoro-4-chlorophenyltetrahydrophthalimide, reference compound]	1 (41-60)	2 (21-40)	2 (21-40)	2 (21-40)	4 (1-10)	5 (0)	1 (41-60)	3 (11-20)	0 (100)	1 (90-99)	3 (11-20)	5 (0)	0 (61-100)	0 (61-100)	2 (21-40)	3 (11-20)	1 (90-99)	2 (80-89)	0 (61-100)	1 (41-60)	Herbicidal activity, Broad-leaved weed (broad-leaved weed; 2.5 g/are): 4 (70-89); Herbicidal activity, Broad-leaved weed (broad-leaved weed; 5 g/are): 5 (90-100); Herbicidal activity, Broad-leaved weed (broad-leaved weed; 10 g/are): 5 (90-100); Herbicidal activity, Green foxtail (green foxtail; 2.5 g/are): 1 (41-60); Herbicidal activity, Green foxtail (green foxtail; 10 g/are): 4 (1-10); Herbicidal activity, Morningglory (morningglory; 2.5 g/are): 1 (41-60); Herbicidal activity, Morningglory (morningglory; 10 g/are): 2 (21-40); Phytotoxicity, Corn (corn; 2.5 g/are): 0 (100); Phytotoxicity, Corn (corn; 10 g/are): 2 (80-89); Herbicidal activity, Hemp sesbania (hemp sesbania; 10 g/are): 3 (11-20); Herbicidal activity, Hemp sesbania (hemp sesbania; 20 g/are): 5 (0)
CC(C)Oc1cc(N2C(=O)C3=C(CCCC3)C2=O)c(Cl)cc1Cl [B, 2,4-dichloro-5-isopropoxyphenyltetrahydrophthalimide, reference compound]	0 (61-100)	2 (21-40)	3 (11-20)	4 (1-10)	2 (21-40)	3 (11-20)	0 (61-100)	2 (21-40)	0 (100)	0 (100)	2 (21-40)	3 (11-20)	0 (61-100)	0 (61-100)	1 (41-60)	2 (21-40)	0 (100)	0 (100)	0 (61-100)	1 (41-60)	Herbicidal activity, Green foxtail (green foxtail; 5 g/are): 0 (61-100); Herbicidal activity, Green foxtail (green foxtail; 20 g/are): 0 (61-100); Herbicidal activity, Morningglory (morningglory; 5 g/are): 0 (61-100); Herbicidal activity, Morningglory (morningglory; 20 g/are): 1 (41-60); Phytotoxicity, Corn (corn; 5 g/are): 0 (100); Phytotoxicity, Corn (corn; 20 g/are): 1 (90-99); Herbicidal activity, Hemp sesbania (hemp sesbania; 10 g/are): 1 (41-60); Herbicidal activity, Hemp sesbania (hemp sesbania; 20 g/are): 2 (21-40)
